Reference: patent publication US20110183978A1, “Phenylpyri(mi)dinylazoles” (Bayer CropScience AG, priority 2009, published 2011)
Where two headings read alike, the source gives them in different places.

Legend:
[1] = test system: Sphaerotheca fuliginea; experiment: Example L: in vivo test on Sphaerotheca fuliginea (powdery mildew on cucumber/protective); conditions: Podosphaera fuliginea, 168 h, cucumber, protective, assessment 7 days after inoculation, read-out: % Wirkungsgrad
Method in brief: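 Young cucumber plants sprayed at stated dosage with compound in DMF/alkylaryl polyglycol ether emulsifier diluted in water; inoculated with S. fuliginea spores one day later. Kept in greenhouse at 70% relative humidity, 23° C; protective activity assessed 7 days after inoculation.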

[2] = test system: Botrytis cinerea; experiment: Example P: in vivo test on Botrytis cinerea (gray mould on bean/protective); conditions: 48 h, bean, protective, 250 ppm active substance, assessed 2 days after inoculation, read-out: % Wirkungsgrad (activity level)
Description: (§1) Emulsifier: 1 part by weight alkylaryl polyglycol ethers For the preparation of a suitable active substance preparation, 1 part by weight of active substance is mixed with the stated quantities of solvent and emulsifier and the concentrate is diluted to the desired concentration with water. For the testing for protective activity, young plants are sprayed with the active substance preparation at the stated application dosage. After drying of the spray coating, 2 small pieces of agar with Botrytis cinerea growing on them are laid on every leaf. […] 2 days after the inoculation, the size of the infection blotches on the leaves is assessed.

[3] = physchem
[4] = test system: Alternaria solani; experiment: Example M: in vivo test on Alternaria solani (leaf blotch disease/tomato/protective); conditions: 168 h, tomato, protective, 500 ppm active substance, assessed 7 days after inoculation, read-out: % Wirkungsgrad (activity level)
Method in brief: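 Alternaria solani infection on tomato scored 7 days post-inoculation. Before inoculation, young plants received a protective spray at the stated application dose; formulation was compound mixed with N,N-dimethylformamide and emulsifier, water-diluted.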

[5] = test system: Venturia inaequalis; experiment: Example O: in vivo test on Venturia inaequalis (apple scab/protective); conditions: 240 h, protective, assessment 10 days after inoculation, read-out: % Wirkungsgrad
Description: as §1, with “dosage.” for “dosage. After drying of the spray coating, 2 small pieces of agar with Botrytis cinerea growing on them are laid on every leaf.”, “10” for “2”, “assessment takes place.” for “size of the infection blotches on the leaves is assessed.”

[6] = test system: Fusarium graminearum; experiment: microbe, parasite or virus in culture; type: cell-based
[7] = test system: Sphaerotheca fuliginea; experiment: Example D: in vivo test on Sphaerotheca fuliginea (powdery mildew on cucumber); conditions: Podosphaera fuliginea, 288 h, cucumber plants sprayed 24 hours before inoculation, scored after 12 days, read-out: % Wirkungsgrad
Description: In Vivo Test on Sphaerotheca Fuliginea (Powdery Mildew on Cucumber) An aqueous suspension of the active substance was prepared by homogenization of a mixture of acetone/Tween/dimethyl sulphoxide and subsequent dilution with water to the desired concentration. Cucumber plants (variety: Vert petit de Paris) are sown in cultivation dishes on a peat-pozzolanic earth substrate (50/50) at 20/23° C. and at the cotyledon stage Z10 sprayed with the aqueous suspension described above. As a control, plants are sprayed with an aqueous solution with no active substance. After 24 hours the plants are inoculated by spraying with an aqueous suspension of Sphaerotheca fuliginea spores (100,000 spores per ml). The spores are derived from a contaminated plant. The inoculated cucumber plants are incubated at ca. 20/25° C. at a relative atmospheric humidity of 60/70%. After 12 days they are scored in comparison with the control plants.

[8] = test system: Fusarium proliferatum; experiment: Example I: production of fumonisin FB1 by Fusarium proliferatum (microtitre plates); type: cell-based; conditions: 120 h
[9] = 72 h, read-out: % Inhibition des Pilzwachstums bei 50 μM
[10] = 168 h, read-out: % Inhibition der DON/AcDON produktion bei 50 μM
[11] = LogPA (logP of the stated pure compound or, in a mixture, of the main isomer, 1-substituted 3-aryl-1H-pyrazole)
[12] = Fusarium proliferatum growth, OD 620, 5 days, read-out: % Inhibition des Pilzwachstums bei 50 μM
[13] = Fusarium proliferatum, 5 days at 20° C., HPLC-MS/MS, read-out: % Inhibition der FB1 produktion bei 50 μM

| SMILES | pest or weed control at 500 ppm [1] | pest or weed control at 250 ppm [2] | chromatographic logP ([3]; LogPA) | pest or weed control at 500 ppm [4] | pest or weed control at 100 ppm [5] | inhibition at 50 µM [6, 9] | inhibition at 50 µM [6, 10] | chromatographic logP [3, 11] | pest or weed control at 500 ppm [7] | inhibition at 50 µM [8, 12] | inhibition at 50 µM [8, 13] |
| --- | --- | --- | --- | --- | --- | --- | --- | --- | --- | --- | --- |
| CC(C)On1cc(-c2ccnc(NC(=O)C3CC3)c2)c(-c2ccc(F)cc2)n1 [Compound 271] | 79% | 93% | 2.73 | 89% | 81% | 71% | 99% |  |  |  |  |
| Fc1ccc(-c2nn(Cc3cnc(Cl)s3)cc2-c2ccncc2)cc1 [Compound 110] |  |  |  |  |  |  |  | 1.54 | 79% |  |  |
| CCNC(=O)Nc1cc(-c2cn(C(C)C)nc2-c2ccc(F)cc2)ccn1 [Compound 211] | 93% | 100% | 2.02 | 70% | 92% | 16% | 99% |  |  |  |  |
| CCC(C)n1cc(-c2ccnc(NC(=O)COC)c2)c(-c2ccc(F)cc2)n1 (stereo not drawn) [Compound 162] | 99% | 100% |  | 94% | 96% | 99% | 99% | 2.95 |  |  |  |
| CC(C)n1cc(-c2ccnc(NC(=O)C(C)(C)O)c2)c(-c2ccc(F)cc2)n1 [Compound 209] | 100% | 100% | 2.42 | 95% | 89% |  |  |  |  |  |  |
| CCC(=O)Nc1cc(-c2cn(CC3CC3(Cl)Cl)nc2-c2ccc(F)cc2)ccn1 (stereo not drawn) [Compound 249] | 92% | 100% | 2.8 | 94% | 96% |  |  |  |  |  |  |
| N#CCn1cc(-c2ccncc2)c(-c2ccc(F)cc2)n1 [Compound 180] |  | 93% | 0.89 |  | 96% |  |  |  |  |  |  |
| CCOC(=O)Nc1cc(-c2cn(C(C)CC)nc2-c2ccc(F)cc2)ccn1 (stereo not drawn) [Compound 268] | 100% | 100% | 3.08 | 80% | 98% | 32% | 90% |  |  |  |  |
| CC(C)n1cc(-c2ccnc(NC(=O)C(O)CO)c2)c(-c2ccc(F)cc2)n1 (stereo not drawn) [Compound 210] | 100% | 98% | 1.76 | 80% | 78% | 85% | 100% |  |  |  |  |
| CC(C)(O)C(=O)Nc1cc(-c2cn(CC(F)F)nc2-c2ccc(F)cc2)ccn1 [Compound 243] | 95% | 75% | 2.18 | 100% | 98% |  |  |  |  |  |  |
| CCC(=O)Nc1cc(-c2cn(Cc3ccccc3F)nc2-c2ccc(F)cc2)ccn1 [Compound 213] | 74% | 91% | 2.69 | 90% |  | 0% | 100% |  |  | 56% | 100% |
| CC(C)n1cc(-c2ccnc(NC(=O)c3ccccc3)c2)c(-c2ccc(F)cc2)n1 [Compound 205] | 100% | 100% | 3.2 | 95% | 91% |  |  |  |  |  |  |
| CC(C)On1cc(-c2ccnc(NC(=O)C(C)C)c2)c(-c2ccc(F)cc2)n1 [Compound 272] | 94% | 100% | 3.01 | 94% | 89% | 33% | 99% |  |  |  |  |
| COCCn1cc(-c2ccnc(NC(=O)COC)c2)c(-c2ccc(F)cc2)n1 [Compound 163] | 93% |  |  | 93% |  | 100% | 100% | 2.05 |  | 72% | 100% |
| CC(C)Cn1cc(-c2ccnc(NC(=O)C(C)C)n2)c(-c2ccc(F)cc2)n1 [Compound 189] |  | 93% | 2.92 | 95% | 84% |  |  |  |  | 0% | 90% |
| CC(C)n1cc(-c2ccnc(NC(=O)c3cccs3)c2)c(-c2ccc(F)cc2)n1 [Compound 206] | 94% | 100% | 3.14 | 90% | 83% | 75% | 99% |  |  |  |  |
| COCC(=O)Nc1cc(-c2cn(CC(C)C)nc2-c2ccc(F)cc2)ccn1 [Compound 166] | 97% |  | 2.96 | 95% |  | 84% | 100% |  |  | 98% | 100% |
| COCCOCC(=O)Nc1cc(-c2cn(C(C)C)nc2-c2ccc(F)cc2)ccn1 [Compound 208] | 100% | 100% | 2.62 | 80% | 78% | 101% | 100% |  |  |  |  |
| COCC(=O)Nc1cc(-c2cn(CCCl)nc2-c2ccc(F)cc2)ccn1 [Compound 220] | 97% | 100% | 2.36 | 95% | 96% | 100% | 99% |  |  | 99% | 100% |
| CC(C)n1cc(-c2ccnc(NC(=O)C3CCC3)c2)c(-c2ccc(F)cc2)n1 [Compound 156] | 94% | 98% |  | 94% | 91% | 99% | 81% | 2.57 |  | 93% | 100% |
| CC(C)C(=O)Nc1cc(-c2cn(CC3CC3(Cl)Cl)nc2-c2ccc(F)cc2)ccn1 (stereo not drawn) [Compound 254] | 92% |  | 3.17 | 94% | 73% | 16% | 99% |  |  |  |  |
| CCOCCn1cc(-c2ccncc2)c(-c2ccc(F)cc2)n1 [Compound 179] | 74% | 100% | 1.25 | 100% | 100% |  |  |  |  |  |  |
| CC(=O)Nc1cc(-c2cn(CC(F)F)nc2-c2ccc(F)cc2)ccn1 [Compound 242] | 97% | 99% | 1.74 | 88% | 89% |  |  |  |  |  |  |
| CC(C)Cn1cc(-c2ccncn2)c(-c2cccc(Cl)c2)n1 [Compound 5] | 70% |  |  | 90% |  | 97% | 100% | 3.27 |  | 79% | 100% |
| CC(C)C(=O)Nc1cc(-c2cn(CCCl)nc2-c2ccc(F)cc2)ccn1 [Compound 222] | 100% | 85% | 2.33 | 90% | 95% | 99% | 82% |  |  | 96% | 100% |
